# Reference: patent US6153405A, “Lantibiotic mutants and chimeras of enhanced stability and activity, leader sequences therefor, genes encoding the same, and methods of producing and using the same” (The University of Maryland, priority 1998, dated 2000)
# Where two headings read alike, the source gives them in different places. *1 amine or outer side, *2 acyl side, *3 side chain or, on linkers, in order; H or OH if unused. Where no end group is shown, it is not given here. Suc = O=C(CCC(=O)[*:2])[*:1]
# Legend:
# [1] = test system: Bacillus cereus spores and/or vegetative cells; settings: cited from earlier work
# [2] = test system: B. cereus vegetative cells; experiment: liquid assay of vegetative cells (lysis by turbidity); assay type: cell-based, Bacillus cereus; settings: for inhibition of vegetative cells (inhibitory concentration): amount of peptide required to reduce turbidity by 50%
# Method: The activity of the chimeric Nis1-11 -Sub12-32 peptide towards inhibiting B. cereus vegetative cells was also determined. Heat-shocked B. cereus T spores (150 micrograms) were added to 1% tryptone (Difco)-0.1 M Tris-phosphate buffer (2 ml) at pH 6.8. The mixture was incubated for 2 hours at 37° C. in a rotating drum shaker, whereupon all of the spores were in the vegetative state. The chimeric peptide was then added, and incubation was continued for one additional hour. Cell lysis was monitored by turbity (measured in Klett units), and the integrity of the cell was determined by phase-contrast microscopy. Relative inhibitory effectiveness was measured as the amount of inhibitory peptide required to reduce the turbity by 50%.
# B. cereus T spores [3] = experiment: liquid culture assay of spore outgrowth; assay type: cell-based, Bacillus cereus; settings: for inhibition of spore outgrowth (inhibitory concentration): B. cereus T spores, 90 min incubation
# Method: In the liquid culture assay, various concentrations of peptide were added to a suspension of B. cereus T spores in modified medium A and incubated in a rotating drum shaker at 30° C. for 90 min. The inhibitory effects were evaluated using phase contrast microscopy and a Klett-Summerson calorimeter. After incubation, cells were viewed by phase-contrast microscopy to determine their stage of outgrowth. Those cells in early stages of outgrowth (phase-dark and swollen, but only slightly elongated) were considered inhibited. Those cells that were fully elongated and/or divided were considered to be not inhibited. The inhibitory concentration is the concentration of peptide which arrests a majority of the population of spores at the stage of early outgrowth after the 90-min incubation period. Further, spore germination and outgrowth are accompanied by known changes in the optical density at 650 nm. Thus, the stage of outgrowth can be monitored and the inhibitory concentration can be confirmed using a Klett-Summerson calorimeter. Definitive determinations of the inhibitory concentration of peptide advantageously employ both phase-contrast microscopy and measurement of the optical density at 650 nm.
# [4] = stability of dehydro residues in aqueous solution by 1H NMR; assay type: physicochemical; settings: D2O, pH 6.0, dark, room temperature
# Method: Samples for ^1 H NMR spectral analysis were dissolved in deuterated water (99.96 atom % D, Aldrich Chemical Co.), lyophilized (repeated twice) to exchange protons and dissolved in D2 O to a final concentration of 2-3 mg/mL. ^1 H NMR spectra were obtained using a Bruker AMX-500 spectrometer interfaced to an Aspect 3000 computer. Spectra were obtained at a constant temperature of 295 K, using selective solvent suppression. Data were processed using UXNMR software. Mass spectral analysis was performed by PeptidoGenic Research & Co. (Livermore, Calif.) on a Sciex API I Electrospray Mass Spectrometer which has an analysis range of over 200,000 Da with +/-0.01% accuracy, on 5 μL samples at a concentration of about 5 pmol/μL. The reported masses are those calculated as the most probable values based on the different m/z forms.
# A 3 mg amount of the Nis1-11 -Sub12-32 chimera (consisting of a mixture of the Early Peak and Late Peak as defined in FIGS. 4 and 5) was dissolved in D2 O at a pH of 6.0, placed in an NMR tube (which was then closed), and incubated in aqueous solution in the dark at room temperature for 2.5 months.
# B. cereus T spores [5] = experiment: inhibition zone (halo) assay; assay type: cell-based, Bacillus cereus; settings: HPLC fractions spotted on agar, sprayed with B. cereus T spores
# Method: Biological activity was measured using an inhibition zone (halo) assay (ref. 21 and U.S. application Ser. No. 07/981,525 now U.S. Pat. No. 5,516,682) and a liquid culture assay (26). HPLC fractions were tested for activity by spotting 15 μL onto an agar plate (modified Medium A), incubating at 37° C. for 15 min., spraying with B. cereus T spores and incubating at 37° C. for 16 hr. Positive inhibition is defined as and was determined by a clear zone containing spores that were inhibited during outgrowth surrounded by an opaque lawn of cells derived from the spores that had become vegetative.
# [6] = inferred through nisin from previous measurements (21, 26, 31)
substance,measurement,setting,value
"succinylated subtilin: subtilin succinylated at its N-terminus, accumulates in late stationary phase of B. subtilis 6633 (Suc-WKSESLCTPGCVTGALQTCFLQTLTCNCKISK; cysteine pairing not given here; also: lantibiotic (post-translational modifications not placed); UniProt P10946 25-56, looked up)",activity compared with normal unsuccinylated subtilin,[1]; succinylated at N-terminus,significantly less active
"SL --S1-32: prepeptide: subtilin leader sequence and subtilin structural region (MSKFDDFDLDVVKVSKQDSKITPQWKSESLCTPGCVTGALQTCFLQTLTCNCKISK; full-length; UniProt P10946 1-56, looked up)",Secreted peptide is active,"[1]; prepeptide expressed in B. subtilis 168, ref. b (21)",yes
same,Secreted peptide is active,[1]; prepeptide expressed in B. subtilis 6633,yes
nisin [reference compound],inhibition of vegetative cells (inhibitory concentration),[2],about 2 μg/ml
same,inhibition of spore outgrowth (inhibitory concentration),B. cereus T spores [3],about 0.2 μg/ml
"NL --Nis1-34: complete nisin prepeptide: nisin leader region and nisin structural region (MSTKDFNLDLVSVSKKDSGASPRITSISLCTPGCKTGALMGCNMKTATCHCSIHVSK; full-length; UniProt P13068 1-57, looked up)",Secreted peptide is active,"[1]; prepeptide expressed in L. lactis 11454, ref. c (17)",yes
"Nis1-11 -Sub12-32: chimeric lantibiotic: nisin residues 1-11 and subtilin residues 12-32 (SEQ ID NO:5), processed by B. subtilis 168",activity against vegetative growth,[2],active
same,inhibition of vegetative cells (inhibitory concentration),[2],about 2 μg/ml
same,change in the NMR resonances of the dehydro residues,"[4]; 72-day incubation, mixture of Early Peak and Late Peak",no significant change
same,half-life of the Dha5 residue,"[4]; NMR at 0, 34 and 72 days",so long that it cannot be estimated from the 72-day time-point
same,antimicrobial activity in halo assay,B. cereus T spores [5],possessed antimicrobial activity
same,antimicrobial activity in halo assay,B. cereus T spores [5]; listed as Early Peak,antimicrobial activity is associated mainly with the Early Peak
same,activity against spore outgrowth,B. cereus T spores [3],active
same,inhibition of spore outgrowth (inhibitory concentration),B. cereus T spores [3],about 0.2 μg/ml
same,activity relative to E4I-subtilin (fold more active),B. cereus T spores [3]; [6],about 2 fold
same,activity relative to natural subtilin (times more active),B. cereus T spores [3]; [6],6-8 times
